Measurements reported in ChEMBL document CHEMBL1144968, “Novel, highly potent, selective 5-HT2A/D2 receptor antagonists as potential atypical antipsychotics” (Bioorg Med Chem Lett, 2003).

Experiments:
[1] = target: T1, 5-hydroxytryptamine receptor 2C (Homo sapiens, UniProt P28335); assay: Binding affinity towards 5-hydroxytryptamine 2C receptor using [125I]DOI as radioligand.
T1 sequence (P28335 whole entry): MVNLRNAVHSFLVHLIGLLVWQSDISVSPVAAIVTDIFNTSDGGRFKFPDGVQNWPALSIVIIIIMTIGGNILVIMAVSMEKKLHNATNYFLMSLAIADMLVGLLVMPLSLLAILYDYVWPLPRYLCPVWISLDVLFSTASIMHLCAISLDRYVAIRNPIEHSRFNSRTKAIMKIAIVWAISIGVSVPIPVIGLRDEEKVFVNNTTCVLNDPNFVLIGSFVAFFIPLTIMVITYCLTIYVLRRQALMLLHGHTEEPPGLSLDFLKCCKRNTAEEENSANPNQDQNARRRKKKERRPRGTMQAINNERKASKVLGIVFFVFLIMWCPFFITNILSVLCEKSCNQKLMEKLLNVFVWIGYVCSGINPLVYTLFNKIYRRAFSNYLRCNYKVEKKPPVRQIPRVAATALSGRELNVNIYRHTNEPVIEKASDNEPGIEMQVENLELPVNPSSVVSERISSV

[2] = target: Dopamine D2 receptor and serotonin 2a receptor (Homo sapiens) (UniProt P14416+P28223); assay: Selectivity ratio for inhibition of dopamine D2 receptor to that of 5-HT2A receptor.; type: protein assay
[3] = target: D(2) dopamine receptor (Homo sapiens, UniProt P14416); assay: Binding affinity towards DA D2 receptor using [3H]N-methyl-spiperone as radioligand.
[4] = target: 5-hydroxytryptamine receptor 2A (Homo sapiens, UniProt P28223); assay: Binding affinity towards 5-hydroxytryptamine 2A receptor using [125I]DOI as radioligand.
[5] = tested on: Rattus norvegicus; assay: Inhibition of quipazine induced head twitching after peroral administration in rat.; type: functional; details: po

5-hydroxytryptamine receptor 2A, sequence (P28223 whole entry): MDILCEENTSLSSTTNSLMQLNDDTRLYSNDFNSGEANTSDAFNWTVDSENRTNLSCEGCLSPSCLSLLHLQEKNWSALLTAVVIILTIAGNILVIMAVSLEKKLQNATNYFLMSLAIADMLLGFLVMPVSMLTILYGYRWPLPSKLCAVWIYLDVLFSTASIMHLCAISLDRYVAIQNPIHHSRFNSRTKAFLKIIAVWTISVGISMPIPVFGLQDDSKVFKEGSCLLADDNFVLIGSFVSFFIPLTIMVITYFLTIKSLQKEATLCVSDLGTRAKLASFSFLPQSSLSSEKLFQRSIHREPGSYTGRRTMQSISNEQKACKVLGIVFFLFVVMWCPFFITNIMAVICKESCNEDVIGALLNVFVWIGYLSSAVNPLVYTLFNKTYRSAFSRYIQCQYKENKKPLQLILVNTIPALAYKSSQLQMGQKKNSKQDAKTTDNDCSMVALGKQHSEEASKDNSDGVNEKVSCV
Dopamine D2 receptor and serotonin 2a receptor (Homo sapiens), sequence (P14416 whole entry, looked up): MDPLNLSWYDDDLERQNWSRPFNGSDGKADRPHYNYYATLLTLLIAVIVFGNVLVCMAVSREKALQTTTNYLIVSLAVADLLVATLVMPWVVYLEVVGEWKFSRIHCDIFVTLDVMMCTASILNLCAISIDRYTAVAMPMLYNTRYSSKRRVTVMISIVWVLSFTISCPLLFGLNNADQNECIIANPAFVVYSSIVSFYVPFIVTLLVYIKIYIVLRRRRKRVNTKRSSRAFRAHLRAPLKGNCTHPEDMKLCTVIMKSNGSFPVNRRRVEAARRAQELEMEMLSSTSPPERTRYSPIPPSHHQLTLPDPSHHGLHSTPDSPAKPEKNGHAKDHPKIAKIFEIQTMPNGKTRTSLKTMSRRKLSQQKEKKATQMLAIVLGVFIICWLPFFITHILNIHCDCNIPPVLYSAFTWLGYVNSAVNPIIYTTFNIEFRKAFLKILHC
Dopamine D2 receptor and serotonin 2a receptor (Homo sapiens), sequence (P28223 whole entry, looked up): as the sequence (P28223 whole entry) above
D(2) dopamine receptor, sequence (P14416 whole entry): as the sequence (P14416 whole entry, looked up) above

| Structure (SMILES) | Ki [1] [nM] | Ratio [2] | Ki [3] [nM] | Ki [4] [nM] | ED50 [5] [mg/kg] |
| --- | --- | --- | --- | --- | --- |
| Nc1cc(F)ccc1C(=O)CCCN1CC[C@@H]2[C@H](C1)c1cccc3c1N2CCCS3 | 452 | 1.1 | 4.7 | 4.2 |  |
| Nc1cc(F)ccc1C(=O)CCCN1CC[C@H]2[C@@H](C1)c1cccc3c1N2CCS3 | 90 | 13 | 4 | 0.3 |  |
| Nc1ccccc1C(=O)CCCN1CC[C@@H]2[C@H](C1)c1cccc3c1N2CCCS3 | 320 | 0.57 | 5.9 | 10.4 |  |
| Nc1ccccc1C(=O)CCCN1CC[C@H]2[C@@H](C1)c1cccc3c1N2CCCS3 (stereo in doubt; 4) [listing 1 of 2 here] | 200 |  | 6 | 2.1 |  |
| O=C(CCCN1CC[C@H]2[C@@H](C1)c1cccc3c1N2CCCS3)c1ccc(F)cc1 | 609 | 3.5 | 8.8 | 2.5 | 0.86 |
| Nc1ccccc1C(=O)CCCN1CC[C@@H]2[C@H](C1)c1cccc3c1N2CCO3 | 501 | 5 | 60 | 11.9 |  |
| Nc1cc(F)ccc1C(=O)CCCN1CC[C@@H]2[C@H](C1)c1cccc3c1N2CCS3 | 184 | 9.3 | 14 | 1.5 |  |
| Nc1ccccc1C(=O)CCCN1CC[C@H]2[C@@H](C1)c1cccc3c1N2CCCS3 (stereo in doubt; 4) [listing 2 of 2 here] |  | 2.9 |  |  |  |
| Nc1cc(F)ccc1C(=O)CCCN1CC[C@H]2[C@@H](C1)c1cccc3c1N2CCCS3 (stereo in doubt; 6) [listing 1 of 2 here] | 106 |  | 4.1 | 0.7 |  |
| Nc1cc(Br)ccc1C(=O)CCCN1CC[C@H]2[C@@H](C1)c1cccc3c1N2CCCS3 | 112 | 0.06 | 4.7 | 79 |  |
| Nc1cc(F)ccc1C(=O)CCCN1CC[C@@H]2[C@H](C1)c1cccc3c1N2CCCC3 | 136 | 21 | 19 | 0.9 |  |
| O=C(CCCN1CC[C@H]2[C@@H](C1)c1cccc3c1N2CCCS3)c1ccccc1 | 417 | 6.3 | 17 | 2.7 |  |
| Nc1ccccc1C(=O)CCCN1CC[C@@H]2[C@H](C1)c1cccc3c1N2CCC3 | 94 | 17 | 63 | 3.7 |  |
| CS(=O)(=O)Nc1cc(F)ccc1C(=O)CCCN1CC[C@H]2[C@@H](C1)c1cccc3c1N2CCCS3 | 639 | 2.4 | 18 | 7.5 |  |
| Nc1ccc(F)cc1C(=O)CCCN1CC[C@H]2[C@@H](C1)c1cccc3c1N2CCCS3 | 258 | 1 | 15 | 15 |  |
| Nc1cc(F)ccc1C(=O)CCCN1CC[C@H]2[C@@H](C1)c1cccc3c1N2CCO3 | 128 | 12 | 2.3 | 0.2 |  |
| Nc1ccccc1C(=O)CCCN1CC[C@H]2[C@@H](C1)c1cccc3c1N2CCCS3 (stereo in doubt; (+)-4) [listing 1 of 2 here] |  | 25 |  |  |  |
| Nc1ccccc1C(=O)CCCN1CC[C@H]2[C@@H](C1)c1cccc3c1N2CCCC3 | 106 | 16 | 11 | 0.7 |  |
| CNc1ccccc1C(=O)CCCN1CC[C@H]2[C@@H](C1)c1cccc3c1N2CCCS3 | 253 | 0.5 | 31 | 62 |  |
| Nc1cc(F)ccc1C(=O)CCCN1CC[C@H]2[C@@H](C1)c1cccc3c1N2CCCC3 | 136 | 5.8 | 3.5 | 0.6 |  |

| Structure (SMILES) | Ki [1] [nM] | Ratio [2] | Ki [3] [nM] | Ki [4] [nM] | ED50 [5] [mg/kg] |
| --- | --- | --- | --- | --- | --- |
| Nc1cc(O)ccc1C(=O)CCCN1CC[C@H]2[C@@H](C1)c1cccc3c1N2CCCS3 | 259 | 0.56 | 50 | 90 |  |
| CC(=O)Nc1cc(F)ccc1C(=O)CCCN1CC[C@H]2[C@@H](C1)c1cccc3c1N2CCCS3 | 222 | 4.3 | 3.4 | 0.8 |  |
| CCNC(=O)Nc1cc(F)ccc1C(=O)CCCN1CC[C@H]2[C@@H](C1)c1cccc3c1N2CCCS3 | 48 | 2.3 | 26 | 11 |  |
| Nc1ccccc1C(=O)CCCN1CC[C@H]2[C@@H](C1)c1cccc3c1N2CCO3 | 335 | 14 | 23 | 1.6 |  |
| Nc1ccccc1C(=O)CCCN1CC[C@@H]2[C@H](C1)c1cccc3c1N2CCCC3 | 148 | 6.5 | 20 | 3.1 |  |
| Nc1ccccc1C(=O)CCCN1CC[C@H]2[C@@H](C1)c1cccc3c1N2CCS3 | 417 | 51 | 41 | 0.8 |  |
| Nc1cc(F)ccc1C(=O)CCCN1CC[C@@H]2[C@H](C1)c1cccc3c1N2CCO3 | 664 | 5.7 | 16 | 2.8 | 0.03 |
| O=CNc1cc(F)ccc1C(=O)CCCN1CC[C@H]2[C@@H](C1)c1cccc3c1N2CCCS3 | 259 | 0.09 | 7.7 | 90 |  |
| Nc1ccccc1C(=O)CCCN1CC[C@H]2[C@@H](C1)c1cccc3c1N2CCCS3 (stereo in doubt; (+)-4) [listing 2 of 2 here] | 172 |  | 15 | 0.6 |  |
| Nc1cc(F)ccc1C(=O)CCCN1CC[C@H]2[C@@H](C1)c1cccc3c1N2CCCS3 (stereo in doubt; 6) [listing 2 of 2 here] |  | 5.9 |  |  |  |
| Nc1cc(F)ccc1C(=O)CCCN1CC[C@H]2[C@@H](C1)c1cccc3c1N2CCCS3 (stereo in doubt; (+)-6) [listing 1 of 2 here] |  | 6.8 |  |  |  |
| Nc1ccccc1C(=O)CCCN1CC[C@H]2[C@@H](C1)c1cccc3c1N2CCC3 | 106 | 85 | 68 | 0.8 |  |
| Nc1c(F)cccc1C(=O)CCCN1CC[C@H]2[C@@H](C1)c1cccc3c1N2CCCS3 | 672 | 1.8 | 14 | 7.6 |  |
| Nc1cc(Cl)ccc1C(=O)CCCN1CC[C@H]2[C@@H](C1)c1cccc3c1N2CCCS3 | 754 | 0.03 | 2.3 | 70 |  |
| Nc1ccccc1C(=O)CCCN1CC[C@@H]2[C@H](C1)c1cccc3c1N2CCS3 | 237 | 2.9 | 19 | 6.6 |  |
| Nc1cc(F)ccc1C(=O)CCCN1CC[C@@H]2[C@H](C1)c1cccc3c1N2CCC3 | 71 | 24 | 29 | 1.2 | 1.4 |
| CCOC(=O)Nc1cc(F)ccc1C(=O)CCCN1CC[C@H]2[C@@H](C1)c1cccc3c1N2CCCS3 | 349 | 0.29 | 15.1 | 51 |  |
| Nc1cc(F)ccc1C(=O)CCCN1CC[C@H]2[C@@H](C1)c1cccc3c1N2CCC3 | 53 | 10.2 | 5.2 | 0.5 |  |
| Nc1cc(F)ccc1C(=O)CCCN1CC[C@H]2[C@@H](C1)c1cccc3c1N2CCCS3 (stereo in doubt; (+)-6) [listing 2 of 2 here] | 82 |  | 2.7 | 0.4 | 0.52 |
